Active and inactive are the calls of the source.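 The calls were made as follows: active = Positive modulators of the M5 receptor in a calcium signal test, half-maximal potency under 10 µM; inactive = the rest.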

The target of the first assay is Muscarinic acetylcholine receptor M5 (Homo sapiens) (UniProt P08912). The experiment in a line: potentiation of ACh response at human M5 – cell-based, concentration-response curve, dose response (AID 651878). To be noted: CHO-K1 hM5, Fluo-4 calcium flux, ACh EC20 potentiation.
Muscarinic acetylcholine receptor M5 (Homo sapiens), sequence (P08912 whole entry, looked up): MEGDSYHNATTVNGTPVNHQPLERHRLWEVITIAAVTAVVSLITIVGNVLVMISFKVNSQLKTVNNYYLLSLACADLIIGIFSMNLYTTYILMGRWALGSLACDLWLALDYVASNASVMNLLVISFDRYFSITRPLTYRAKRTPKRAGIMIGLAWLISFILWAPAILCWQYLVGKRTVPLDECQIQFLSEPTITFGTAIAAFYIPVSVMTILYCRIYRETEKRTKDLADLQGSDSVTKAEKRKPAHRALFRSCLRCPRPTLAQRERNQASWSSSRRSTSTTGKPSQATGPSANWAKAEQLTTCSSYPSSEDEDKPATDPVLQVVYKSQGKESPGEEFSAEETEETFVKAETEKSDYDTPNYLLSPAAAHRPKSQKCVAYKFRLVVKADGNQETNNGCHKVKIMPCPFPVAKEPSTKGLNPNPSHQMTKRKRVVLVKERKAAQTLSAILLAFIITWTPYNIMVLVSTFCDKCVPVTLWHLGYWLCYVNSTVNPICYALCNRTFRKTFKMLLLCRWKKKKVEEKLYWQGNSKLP
Usually EC50 stands for the concentration needed to bring the measured effect to its halfway point. For `COc1ccc(CN2C(=O)C(O)(c3ccc(F)nc3)c3cc(OC(F)(F)F)ccc32)cc1` (configuration not stated), the EC50 is 2.19 µM.
Same read-out and setting: under `COc1ccc(CN2C(=O)C(O)(C[N+](=O)[O-])c3cc(OC(F)(F)F)ccc32)cc1` (configuration not stated) stands 1.38 µM.

Still in this assay, the particulars now being: CHO-K1 hM5, Fluo-4 calcium flux, ACh EC20 potentiation; at 31.6 µM (top of the series).
Take `COc1ncc(-c2ccc(CN3C(=O)C(=O)c4cc(OC(F)(F)F)ccc43)cc2)cn1`: the % ACh max response is 74.4%.
The same measure, in the same setting: under `COc1ccc(CN2C(=O)C3(COC3)c3cc(OC(F)(F)F)ccc32)cc1` stands “inactive”.
Turning to `COc1ccc(CN2C(=O)C(CO)(CO)c3cc(OC(F)(F)F)ccc32)cc1`, the “% ACh max response” value is “inactive”.
Regarding `COc1ccc(CN2C(=O)C(O)(c3ccc(N(C)C)nc3)c3cc(OC(F)(F)F)ccc32)cc1` (configuration not stated), the “% ACh max response” value is “inactive”.
With `COc1ccc(-c2ccc(CN3C(=O)C(=O)c4cc(OC(F)(F)F)ccc43)cc2)cn1`, the % ACh max response is 71.9%.

The values above are taken from PubChem BioAssay AID651878 (Vanderbilt Specialized Chemistry Center, 2012).
